According to ChEMBL document CHEMBL6134848, “Deuteration Strategy-Inspired Design of Novel Diarylpyrimidine Derivatives as Potent Non-Nucleoside Reverse Transcriptase Inhibitors Featuring Improved Efficacy, Selectivity, and Druggability” (J Med Chem, 2025):

Assays:
[1] = tested on: Human immunodeficiency virus 1; experiment: Antiviral activity against wild-type HIV-1 IIIB infected in human MT4 cells assessed as protection against virus-induced cytopathicity measured after 5 days post-infection by MTT assay; type: functional, organism-based; conditions: Human immunodeficiency virus 1, IIIB, MT4, 120 h
[2] = Cytotoxicity against human MT4 cells assessed as reduction in cell viability by MTT assay; type: toxicity, cell-based
[3] = tested on: Human immunodeficiency virus 1; experiment: Antiviral activity against drug-resistant HIV-1 harboring RT K103N mutant infected in human MT4 cells assessed as protection against virus-induced cytopathicity measured after 5 days post-infection by MTT assay; type: functional, organism-based; conditions: Human immunodeficiency virus 1, MT4, 120 h
[4] = tested on: Human immunodeficiency virus 1; experiment: Antiviral activity against drug-resistant HIV-1 harboring RT Y181C mutant infected in human MT4 cells assessed as protection against virus-induced cytopathicity measured after 5 days post-infection by MTT assay; type: functional, organism-based; conditions: Human immunodeficiency virus 1, MT4, 120 h
[5] = tested on: Human immunodeficiency virus 1; experiment: Antiviral activity against drug-resistant HIV-1 harboring RT Y188L mutant infected in human MT4 cells assessed as protection against virus-induced cytopathicity measured after 5 days post-infection by MTT assay; type: functional, organism-based; conditions: Human immunodeficiency virus 1, MT4, 120 h
[6] = tested on: Human immunodeficiency virus 1; experiment: Antiviral activity against drug-resistant HIV-1 harboring RT E138K mutant infected in human MT4 cells assessed as protection against virus-induced cytopathicity measured after 5 days post-infection by MTT assay; type: functional, organism-based; conditions: Human immunodeficiency virus 1, MT4, 120 h
[7] = tested on: Human immunodeficiency virus 1; experiment: Antiviral activity against drug-resistant HIV-1 harboring RT F227L/V106A mutant infected in human MT4 cells assessed as protection against virus-induced cytopathicity measured after 5 days post-infection by MTT assay; type: functional, organism-based; conditions: Human immunodeficiency virus 1, MT4, 120 h
[8] = target: Voltage-gated inwardly rectifying potassium channel KCNH2 (Homo sapiens, UniProt Q12809); experiment: Inhibition of hERG expressed in CHO cells assessed as fold increase by manual patch-clamp electrophysiology relative to RPV; type: toxicity, cell-based
Cytochrome P450 1A2 = target: T1, Cytochrome P450 1A2 (Homo sapiens, UniProt P05177); experiment: Inhibition of CYP1A2 in human liver microsomes using phenacetin as substrate incubated for 15 to 45 mins by; type: ADME, Microsome
T1 sequence (P05177 whole entry): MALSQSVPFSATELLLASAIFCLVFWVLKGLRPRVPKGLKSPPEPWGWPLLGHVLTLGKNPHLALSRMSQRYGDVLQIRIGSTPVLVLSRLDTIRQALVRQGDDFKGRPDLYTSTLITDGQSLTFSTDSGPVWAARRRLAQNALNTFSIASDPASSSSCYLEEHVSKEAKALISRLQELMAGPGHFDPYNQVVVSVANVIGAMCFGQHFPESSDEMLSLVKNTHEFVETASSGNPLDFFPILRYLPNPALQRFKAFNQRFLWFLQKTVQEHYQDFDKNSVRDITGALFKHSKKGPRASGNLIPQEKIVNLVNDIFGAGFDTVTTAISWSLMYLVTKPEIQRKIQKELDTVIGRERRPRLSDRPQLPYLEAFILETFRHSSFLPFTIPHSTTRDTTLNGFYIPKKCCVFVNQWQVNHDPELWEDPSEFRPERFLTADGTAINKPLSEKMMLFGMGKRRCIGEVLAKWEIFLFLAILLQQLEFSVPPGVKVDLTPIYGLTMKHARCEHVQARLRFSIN

Cytochrome P450 2D6 = Cytochrome P450 2D6 (Homo sapiens, UniProt P10635); experiment: Inhibition of CYP2D6 in human liver microsomes using dextromethorphan as substrate incubated for 15 to 45 mins by; type: ADME, Microsome
[9] = Stability in human plasma assessed as compound remaining at 1 uM measured immediately by LC-MS/MS analysis; type: ADME, cell-free; conditions: read-out: Stability
[10] = Stability in human plasma assessed as compound remaining at 1 uM measured after 0.5 hrs by LC-MS/MS analysis; type: ADME, cell-free; conditions: read-out: Stability
[11] = Stability in human plasma assessed as compound remaining at 1 uM measured after 1 hr by LC-MS/MS analysis; type: ADME, cell-free; conditions: read-out: Stability
[12] = Stability in human plasma assessed as compound remaining at 1 uM measured after 2 hrs by LC-MS/MS analysis; type: ADME, cell-free; conditions: read-out: Stability
[13] = Metabolic stability in rat liver microsomes assessed as half life at 1 uM measured up to 45 mins by LC/MS/MS analysis; type: ADME, Microsome; conditions: 0.75 h
[14] = Drug metabolism in rat liver microsomes assessed as metabolic fraction at 1 uM measured up to 45 mins by LC/MS/MS analysis; type: ADME, Microsome; conditions: 0.75 h
[15] = Drug metabolism in dog liver microsomes assessed as metabolic fraction at 1 uM measured up to 45 mins by LC/MS/MS analysis; type: ADME, Canis lupus familiaris, Microsome; conditions: microsomes, 0.75 h, 1 µM
[16] = Stability in human liver microsomes assessed as compound remaining at […] preincubated for 30 mins in ice-water bath followed by incubation at 37 degreeC for 5 mins and further addition of NADPH/UDPGA measured 20.86 mins by LC-MS/MS analysis; type: ADME, Microsome; conditions: time 55.86 min, read-out: Stability
[17] = Protein binding in human plasma assessed as drug recovery rate at 1 uM incubated for 6 hrs; type: ADME, cell-free; conditions: read-out: Drug recovery
[18] = Tmax in Sprague-Dawley rat at 1 mg/kg, iv measured for 0.083 to 24 hrs by LC-MS/MS analysis; type: ADME, organism-based; conditions: in vivo, time 0.083-24 hrs
[19] = Cmax in Sprague-Dawley rat at 1 mg/kg, iv measured for 0.083 to 24 hrs by LC-MS/MS analysis; type: ADME, organism-based; conditions: in vivo, time 0.083-24 hrs
[20] = AUC (0 to t) in Sprague-Dawley rat at 1 mg/kg, iv measured for 0.083 to 24 hrs by LC-MS/MS analysis; type: ADME, organism-based; conditions: in vivo, time 0.083-24 hrs
[21] = Clearance in Sprague-Dawley rat at 1 mg/kg, iv measured for 0.083 to 24 hrs by LC-MS/MS analysis; type: ADME, organism-based; conditions: in vivo, time 0.083-24 hrs
[22] = MRT (0 to infinity) in Sprague-Dawley rat at 1 mg/kg, iv measured for 0.083 to 24 hrs by LC-MS/MS analysis; type: ADME, organism-based; conditions: in vivo, time 0.083-24 hrs
[23] = AUC (0 to t) in Sprague-Dawley rat at 10 mg/kg, po measured for 0.083 to 24 hrs by LC-MS/MS analysis; type: ADME, organism-based; conditions: in vivo, time 0.083-24 hrs
[24] = AUC (0 to infinity) in Sprague-Dawley rat at 10 mg/kg, po measured for 0.083 to 24 hrs by LC-MS/MS analysis; type: ADME, organism-based; conditions: in vivo, time 0.083-24 hrs
[25] = MRT (0 to t) in Sprague-Dawley rat at 10 mg/kg, po measured for 0.083 to 24 hrs by LC-MS/MS analysis; type: ADME, organism-based; conditions: in vivo, time 0.083-24 hrs
[26] = MRT (0 to infinity) in Sprague-Dawley rat at 10 mg/kg, po measured for 0.083 to 24 hrs by LC-MS/MS analysis; type: ADME, organism-based; conditions: in vivo, time 0.083-24 hrs
[27] = Acute toxicity in ICR mouse assessed as pathological change in liver at 2000 mg/kg, IG measured for 14 days by H and E staining based analysis; type: organism-based; conditions: in vivo, po, 336 h, time 14 day
[28] = Acute toxicity in ICR mouse assessed as pathological change in lung at 2000 mg/kg, IG measured for 14 days by H and E staining based analysis; type: organism-based; conditions: in vivo, po, 336 h, time 14 day
[29] = Acute toxicity in ICR mouse assessed as pathological change in kidney at 2000 mg/kg, IG measured for 14 days by H and E staining based analysis; type: organism-based; conditions: in vivo, po, 336 h, time 14 day
[30] = Acute toxicity in ICR mouse assessed as pathological change in brain at 2000 mg/kg, IG measured for 14 days by H and E staining based analysis; type: organism-based; conditions: in vivo, po, 336 h, time 14 day

Chain of Voltage-gated inwardly rectifying potassium channel KCNH2 (Q12809 whole entry): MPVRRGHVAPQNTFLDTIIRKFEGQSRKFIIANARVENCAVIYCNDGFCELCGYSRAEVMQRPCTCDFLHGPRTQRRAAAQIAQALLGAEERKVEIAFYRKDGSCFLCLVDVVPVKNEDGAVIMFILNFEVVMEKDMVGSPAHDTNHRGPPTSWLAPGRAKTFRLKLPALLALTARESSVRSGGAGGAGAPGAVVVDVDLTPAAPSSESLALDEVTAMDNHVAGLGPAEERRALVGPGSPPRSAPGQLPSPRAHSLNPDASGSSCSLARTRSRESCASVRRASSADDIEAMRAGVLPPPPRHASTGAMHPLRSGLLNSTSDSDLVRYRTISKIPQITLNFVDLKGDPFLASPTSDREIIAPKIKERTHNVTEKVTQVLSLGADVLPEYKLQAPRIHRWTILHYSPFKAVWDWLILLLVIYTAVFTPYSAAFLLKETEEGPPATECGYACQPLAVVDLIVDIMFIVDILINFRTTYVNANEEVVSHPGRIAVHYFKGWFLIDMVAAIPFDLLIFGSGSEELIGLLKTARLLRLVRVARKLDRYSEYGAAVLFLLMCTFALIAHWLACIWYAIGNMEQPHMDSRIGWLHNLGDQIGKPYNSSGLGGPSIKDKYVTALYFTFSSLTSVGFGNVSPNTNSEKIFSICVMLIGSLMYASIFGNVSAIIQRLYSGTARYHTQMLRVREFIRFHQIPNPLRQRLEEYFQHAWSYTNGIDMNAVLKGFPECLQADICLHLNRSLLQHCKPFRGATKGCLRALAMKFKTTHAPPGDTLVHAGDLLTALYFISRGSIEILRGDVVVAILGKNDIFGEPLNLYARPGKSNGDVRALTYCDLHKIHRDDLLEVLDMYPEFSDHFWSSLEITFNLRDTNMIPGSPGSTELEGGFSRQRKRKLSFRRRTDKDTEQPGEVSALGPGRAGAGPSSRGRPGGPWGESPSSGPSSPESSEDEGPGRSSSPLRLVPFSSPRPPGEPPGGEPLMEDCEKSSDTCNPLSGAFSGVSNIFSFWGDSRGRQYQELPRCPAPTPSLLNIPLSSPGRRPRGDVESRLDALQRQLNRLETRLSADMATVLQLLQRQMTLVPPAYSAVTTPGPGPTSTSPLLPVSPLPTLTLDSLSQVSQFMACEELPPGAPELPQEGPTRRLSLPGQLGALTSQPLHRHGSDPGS
Chain of Cytochrome P450 2D6 (P10635 whole entry): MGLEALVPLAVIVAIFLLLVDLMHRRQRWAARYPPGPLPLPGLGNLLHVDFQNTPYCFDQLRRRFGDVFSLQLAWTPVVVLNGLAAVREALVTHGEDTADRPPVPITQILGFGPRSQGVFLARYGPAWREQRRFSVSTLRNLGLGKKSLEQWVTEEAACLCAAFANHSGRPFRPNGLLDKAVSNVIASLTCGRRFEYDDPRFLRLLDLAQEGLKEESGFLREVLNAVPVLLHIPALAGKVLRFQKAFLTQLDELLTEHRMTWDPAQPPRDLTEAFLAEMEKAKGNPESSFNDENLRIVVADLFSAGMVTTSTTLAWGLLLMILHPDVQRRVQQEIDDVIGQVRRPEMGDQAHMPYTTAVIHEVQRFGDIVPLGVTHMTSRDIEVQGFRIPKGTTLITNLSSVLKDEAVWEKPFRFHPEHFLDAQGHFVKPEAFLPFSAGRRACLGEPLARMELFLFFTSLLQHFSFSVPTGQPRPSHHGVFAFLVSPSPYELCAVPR

`[2H]C([2H])([2H])c1cc(C#N)cc(C([2H])([2H])[2H])c1Oc1nc(NC2CCN(Cc3ccc(S(N)(=O)=O)cc3)CC2)nc2ccsc12` showed an EC50 [1] of 0.99 nM, a CC50 [2] of over 225000 nM and an EC50 [3] of 1.13 nM. For the same compound, the EC50 [4] was 5.86 nM, the EC50 [5] was 5.18 nM and the EC50 [6] was 7.75 nM. The EC50 [7] was 4.46 nM, the “fold change (FC)” value [8] was 1.9 and the IC50 (Cytochrome P450 1A2) was over 10000 nM. It also gave an IC50 (Cytochrome P450 2D6) of over 10000 nM, a remaining at 0 h, 1 µM [9] of 100% and a remaining at 0.5 h, 1 µM [10] of 98.9%. The remaining at 1 h, 1 µM [11] was 96.5%, the remaining at 2 h, 1 µM [12] was 92.7% and the t1/2 [13] was 19.2 min. It also gave a Fm [14] of 28.9%, a Fm [15] of 17.3% and a remaining at 0.347667 h [16] of 58.8%. The recovery at 6 h, 1 µM [17] was 79.4%, the Tmax [18] was 4.8 min and the Cmax [19] was 1240 ng/mL. The AUC(0-t) [20] was 727 ng·h/mL, the clearance [21] was 22.9 mL/min/kg and the MRT inf [22] was 50.4 min. The AUC(0-t) [23] was 1720 ng·h/mL, the AUC(0-inf) [24] was 1800 ng·h/mL and the MRT last [25] was 143 min. For the same compound, the MRT inf [26] was 161 min, the Activity [27] was “Non-toxic” and the Activity [28] was “Non-toxic”. The Activity [29] was “Non-toxic” and the Activity [30] was “Non-toxic”.
